pIC50: −log10 of the molar value.
Tested on: human PDE4
Test: PDE4 inhibition, in vitro enzymatic IMAP FP assay
Type: biochemical
Conditions: PDE4 partially purified from human monocytic U-937 cells; fluorescence polarization
Description: PDE4 specifically hydrolyzes cAMP and releases the product AMP. The potency of PDE inhibition by said agents was determined in an in vitro enzymatic assay. The assay is commercially available (IMAP™ FP assay Molecular Devices Corp.) and was optimized for the use of human PDE4. Fluorescently labeled cAMP was hydrolyzed by PDE4 and in a second step, binding of labeled product to a large binding partner allowed product detection by fluorescence polarization (FP) measurements.
PDE4 was partially purified from undifferentiated human monocytic cells (U-937) according to Thorpy et al. 1992 (J. Pharmacol. Exp. Ther. 263: 1195). […] In addition, PDE4 preparations were validated by inhibition studies with PDE4-specific and unspecific PDE inhibitors.
Stock solutions of test compounds were made in DMSO and diluted in assay buffer (10 mM Tris-HCl, 10 mM MgCl2, 0.1% BSA 0.05% NaN3, pH 7.2) to the desired concentrations. The solutions used in the assay contained test compound in assay buffer with 2% DMSO.
10 μl of substrate (at a concentration recommended by the manufacturer) were mixed with 5 μl of appropriately diluted PDE and 5 μl of test compound solution. 5 μl of reaction buffer with 2% DMSO were used for control reactions. […] After incubation for 90 minutes at room temperature, 60 μl of binding reagent were added as specified by the manufacturer. Binding was allowed to proceed for 30 minutes and fluorescence polarization was measured. Dose dependence of PDE inhibition was measured by assaying dilution series of test compounds in duplicates. IC50 values were determined from the measured activities by curve fitting.

Row | pIC50 | Molecule
1 | 5.41 | CCC1OC(=O)C(C)C(OC2CC(C)(OC)C(O)C(C)O2)C(C)C(OC2OC(C)CC(N(C)C)C2O)C(C)(OC)CC(C)C(=O)C(C)C2C(SCCn3c(Nc4cccnc4)nc4c(N)ncnc43)C(=O)OC12C (stereo not shown) [Example 2, compound of formula I where R1 is [2-[6-Amino-8-(pyridin-3-ylamino)-purin-9-yl]ethyl]thio, R2 and R3 taken together form a C═O Group and R4 is Methyl]
2 | 5.44 | CSCCn1cnc2c(N)ncc(C(=O)Nc3c(Cl)cncc3Cl)c21 [reference compound]
3 | 4.62 | CCC1OC(=O)C(C)C(OC2CC(C)(OC)C(O)C(C)O2)C(C)C(OC2OC(C)CC(N(C)C)C2O)C(C)(OC)CC(C)C(=O)C(C)C2C(SCCCn3cnc4c(N)ncc(C(=O)NCC(=O)OC)c43)C(=O)OC12C (stereo not shown) [Example 9, compound of formula I where R1 is [3-[4-amino-7-([methoxycarbonylmethyl]-amino-carbonyl)-imidazo[4,5-c]pyridin-1-yl]-propyl]thio, R2 and R3 taken together form a C═O Group and R4 is Methyl]
4 | 8.10 | CC[C@H]1OC(=O)[C@H](C)[C@@H](O[C@H]2C[C@@](C)(OC)[C@@H](O)[C@H](C)O2)[C@H](C)[C@@H](O[C@@H]2O[C@H](C)C[C@H](N(C)C)[C@H]2O)[C@](C)(OC)C[C@@H](C)C(=O)[C@H](C)[C@H]2[C@H](SCCn3cnc4c(N)ncc(C(=O)Nc5c(Cl)cncc5Cl)c43)C(=O)O[C@@]21C [Example 11, compound of formula I where R1 is [2-[4-amino-7-(3,5-dichloro-pyridin-4-yl-amino-carbonyl)-imidazo[4,5-c]pyridin-1-yl]-ethyl]thio, R2 and R3 taken together form a C═O Group and R4 is Methyl]
5 | 6.07 | CCC1OC(=O)C(C)C(OC2CC(C)(OC)C(O)C(C)O2)C(C)C(OC2OC(C)CC(N(C)C)C2O)C(C)(OC)CC(C)C(=O)C(C)C2C(SCCN(Cc3cccnc3)c3ccc(OC)c(OC4CCCC4)c3)C(=O)OC12C (stereo not shown) [Example 5, Compound of Formula I where R1 is [2-[(3-cyclopentyloxy-4-methoxy-phenyl)-(pyridin-3-ylmethyl)-amino]-ethyl]thio, R2 and R3 taken together form a C═O Group and R4 is Methyl]
6 | 4.87 | CCC1OC(=O)C(C)C(OC2CC(C)(OC)C(O)C(C)O2)C(C)C(OC2OC(C)CC(N(C)C)C2O)C(C)(OC)CC(C)C(=O)C(C)C2C(SCCn3c(CCc4cccnc4)nc4c(N)ncnc43)C(=O)OC12C (stereo not shown) [Example 1, compound of formula I where R1 is [2-[6-Amino-8-(2-pyridin-3-yl-ethyl)-purin-9-yl]ethyl]thio, R2 and R3 taken together form a C═O group and R4 is methyl]
7 | 6.00 | CC[C@H]1OC(=O)[C@H](C)[C@@H](O[C@H]2C[C@@](C)(OC)[C@@H](O)[C@H](C)O2)[C@H](C)[C@@H](O[C@@H]2O[C@H](C)C[C@H](N(C)C)[C@H]2O)[C@](C)(OC)C[C@@H](C)C(=O)[C@H](C)[C@H]2[C@H](SCCn3cnc4c(N)ncc(C(=O)Nc5ccncc5)c43)C(=O)O[C@@]21C [Example 10, Compound of Formula I where R1 is [2-[4-amino-7-(pyridin-4-yl-amino-carbonyl)-imidazo[4,5-c]pyridin-1-yl]-ethyl]thio, R2 and R3 taken together form a C═O Group and R4 is Methyl]
8 | 5.59 | CC[C@H]1OC(=O)[C@H](C)[C@@H](O[C@H]2C[C@@](C)(OC)[C@@H](O)[C@H](C)O2)[C@H](C)[C@@H](O[C@@H]2O[C@H](C)C[C@H](N(C)C)[C@H]2O)[C@](C)(OC)C[C@@H](C)C(=O)[C@H](C)[C@H]2[C@H](SCCn3cnc4c(N)nc(NCc5ccncc5)nc43)C(=O)O[C@@]21C [Example 13, Compound of Formula I where R1 is [2-[6-amino-2-[[(4-pyridyl)methyl]amino]-purin-9-yl]ethyl]thio, R2 and R3 taken together form a C═O Group and R4 is Methyl]
9 | 5.42 | CC[C@H]1OC(=O)[C@H](C)[C@@H](O[C@H]2C[C@@](C)(OC)[C@@H](O)[C@H](C)O2)[C@H](C)[C@@H](O[C@@H]2O[C@H](C)C[C@H](N(C)C)[C@H]2O)[C@](C)(OC)C[C@@H](C)C(=O)[C@H](C)[C@H]2[C@H](SCCn3cnc4c(N)nc(NCc5cccnc5)nc43)C(=O)O[C@@]21C [Example 12, Compound of Formula I where R1 is [2-[6-amino-2-[[(3-pyridyl)methyl]amino]-purin-9-yl]ethyl]thio, R2 and R3 taken together form a C═O Group and R4 is Methyl]
10 | 5.33 | compound of formula I where R1 is [3-[4-Amino-7-(pyridin-4-yl-amino-carbonyl)-imidazo[4,5-c]pyridin-1-yl]-propyl]thio, R2 and R3 taken together form a C═O Group and R4 is Methyl [Example 8]
11 | 5.47 | CCC1OC(=O)C(C)C(OC2CC(C)(OC)C(O)C(C)O2)C(C)C(OC2OC(C)CC(N(C)C)C2O)C(C)(OC)CC(C)C(=O)C(C)C2C(SCCN(C(=O)c3ccncc3)c3ccc(OC)c(OC4CCCC4)c3)C(=O)OC12C (stereo not shown) [Example 3, Compound of Formula I where R1 is [2-[(3cyclopentyloxy-4-methoxy-phenyl)-(pyridin-4-yl-carbonyl)-amino]ethyl]thio, R2 and R3 taken together form a C═O Group and R4 is Methyl]
12 | 6.55 | CCC1OC(=O)C(C)C(OC2CC(C)(OC)C(O)C(C)O2)C(C)C(OC2OC(C)CC(N(C)C)C2O)C(C)(OC)CC(C)C(=O)C(C)C2C(SCCN(Cc3ccncc3)c3ccc(OC)c(OC4CCCC4)c3)C(=O)OC12C (stereo not shown) [Example 4, compound of formula I where R1 is [2-[(3-cyclopentyloxy-4-methoxy-phenyl)-(pyridin-4-ylmethyl)-amino]-ethyl]thio, R2 and R3 taken together form a C═O Group and R4 is Methyl]
13 | 5.12 | CCC1OC(=O)C(C)C(OC2CC(C)(OC)C(O)C(C)O2)C(C)C(OC2OC(C)CC(N(C)C)C2O)C(C)(OC)CC(C)C(=O)C(C)C2C(SCCCc3c(C(=O)Nc4ccncc4)ccc(OC)c3OC)C(=O)OC12C (stereo not shown) [Example 7, Compound of Formula I where R1 is [3-[2,3-dimethoxy-6-(pyridin-4-yl-amino-carbonyl)phenyl]-propyl]thio, R2 and R3 taken together form a C═O Group and R4 is Methyl]

Row | Molecule | pIC50
14 | compound of formula I where R1 is [2-[(5-(3,5-dichloro-pyridin-4-yl-amino-carbonyl)-1-ethyl-1H-pyrazolo[3,4-b]pyridin-4-ylamino]-ethyl]thio, R2 and R3 taken together form a C═O Group and R4 is Methyl [Example 6] | 6.43

Same assay, conditions: ratio of Example 11 IC50 to IC50 of free substituent drawing 48

Row | IC50(PDE4) relative to the IC50(PDE4) for the macrolide substituent in free form | Molecule
15 | about one five hundredth | CC[C@H]1OC(=O)[C@H](C)[C@@H](O[C@H]2C[C@@](C)(OC)[C@@H](O)[C@H](C)O2)[C@H](C)[C@@H](O[C@@H]2O[C@H](C)C[C@H](N(C)C)[C@H]2O)[C@](C)(OC)C[C@@H](C)C(=O)[C@H](C)[C@H]2[C@H](SCCn3cnc4c(N)ncc(C(=O)Nc5c(Cl)cncc5Cl)c43)C(=O)O[C@@]21C [Example 11, compound of formula I where R1 is [2-[4-amino-7-(3,5-dichloro-pyridin-4-yl-amino-carbonyl)-imidazo[4,5-c]pyridin-1-yl]-ethyl]thio, R2 and R3 taken together form a C═O Group and R4 is Methyl]

Same assay, conditions: up to a concentration of 50 μM in the assay used in the examples

Row | Molecule | PDE4-inhibiting activity
16 | CC[C@H]1OC(=O)[C@H](C)[C@@H](O[C@H]2C[C@@](C)(OC)[C@@H](O)[C@H](C)O2)[C@H](C)[C@@H](O[C@@H]2O[C@H](C)C[C@H](N(C)C)[C@H]2O)[C@](C)(OC)C[C@@H](C)C(=O)[C@H](C)[C@H]2[C@H](SC)C(=O)O[C@@]21C [reference compound] | does not show any PDE4-inhibiting activity

From patent US8173609B2, “Macrolides useful against inflammatory and allergic diseases” (Basilea Pharmaceutica AG, priority 2006, dated 2012)
